Measurements taken from article PMC5896380, “Selective imaging of cathepsin L in breast cancer by fluorescent activity-based probes” (Chemical Science, 2018).
Non-standard residues stand in square brackets, D forms with d. *: point of attachment. Phe(3,4-Cl2) = N[C@@H](Cc1ccc(Cl)c(Cl)c1)C(=O)O; Phe(F5) = N[C@@H](Cc1c(F)c(F)c(F)c(F)c1F)C(=O)O; Phe(3-F) = N[C@@H](Cc1cccc(F)c1)C(=O)O; Phe(4-F) = N[C@@H](Cc1ccc(F)cc1)C(=O)O; ACC = NC(=O)Cc1cc(=O)oc2cc(N*)ccc12; hArg = N=C(N)NCCCC[C@H](N)C(=O)O; ClZ = O=C(OCc1ccccc1Cl)*; Orn = NCCC[C@H](N)C(=O)O; Mob = COc1ccc(C*)cc1; Meb = Cc1ccc(C*)cc1; OBn = c1ccc(CO*)cc1; Bn = c1ccc(C*)cc1

How the values were obtained:
Type in all cases: biochemical
[1] = target: T1, cathepsin L (Homo sapiens, UniProt P07711); assay: Substrate selectivity screening, rate of hydrolysis, cathepsin L; details: Table S4; substrate 100µM, cathepsin 5nM; pH 5.5, 37 °C; average of at least three screenings
T1 construct: made in house
T1 sequence (P07711 114-333): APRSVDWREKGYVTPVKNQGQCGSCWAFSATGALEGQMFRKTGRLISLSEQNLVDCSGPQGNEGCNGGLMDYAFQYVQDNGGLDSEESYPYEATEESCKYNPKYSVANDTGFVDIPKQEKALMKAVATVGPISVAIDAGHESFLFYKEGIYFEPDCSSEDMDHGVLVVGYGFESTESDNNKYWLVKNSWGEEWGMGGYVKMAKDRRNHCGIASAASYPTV
Procedure: (§1) All kinetic experiments were performed using fMax (Molecular Devices) and CLARIOStar (BMG LABTECH) spectrofluorimeters operating in kinetic mode using 96-well plates. ACC-labeled substrates were screened using 355 nm and 460 nm wavelengths (excitation and emission, respectively). […] The buffer was prepared at room temperature and the enzyme kinetic studies were performed at 37 °C.
(§2) All potentially selective cathepsin L substrates were tested for their selectivity against a panel of five different cathepsins, containing cathepsins L, V, S, K and […], at concentrations of 2 μM and 100 μM. To obtain reliable results the concentration of each cathepsin was 5 nM. Substrate hydrolysis was carried out for 10 min (for cathepsin L) and for up to 60 min (for other cathepsins). Hydrolysis rates (RFU s^–1) are presented as average values from at least three screenings.

[2] = target: T2, cathepsin B (Homo sapiens, UniProt P07858); assay: Substrate selectivity screening, rate of hydrolysis, cathepsin B; details: Table S4; substrate 100µM, cathepsin 5nM; pH 5.5, 37 °C; average of at least three screenings
T2 construct: made in house
Procedure: as §1, §2

[3] = target: T3, cathepsin V (Homo sapiens, UniProt O60911); assay: Substrate selectivity screening, rate of hydrolysis, cathepsin V; details: Table S4; substrate 100µM, cathepsin 5nM; pH 5.5, 37 °C; average of at least three screenings
T3 construct: made in house
T3 sequence (O60911 114-334): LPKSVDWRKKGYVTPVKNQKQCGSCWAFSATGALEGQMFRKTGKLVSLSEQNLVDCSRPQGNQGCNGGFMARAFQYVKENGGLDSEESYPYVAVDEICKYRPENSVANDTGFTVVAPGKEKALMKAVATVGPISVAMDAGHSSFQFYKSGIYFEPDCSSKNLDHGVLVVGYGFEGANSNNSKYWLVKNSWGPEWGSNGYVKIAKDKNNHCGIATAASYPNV
Procedure: as §1, §2

[4] = target: T4, cathepsin S (Homo sapiens, UniProt P25774); assay: Substrate selectivity screening, rate of hydrolysis, cathepsin S; details: Table S4; substrate 100µM, cathepsin 5nM; pH 5.5, 37 °C; average of at least three screenings
T4 construct: made in house
T4 sequence (P25774 115-331): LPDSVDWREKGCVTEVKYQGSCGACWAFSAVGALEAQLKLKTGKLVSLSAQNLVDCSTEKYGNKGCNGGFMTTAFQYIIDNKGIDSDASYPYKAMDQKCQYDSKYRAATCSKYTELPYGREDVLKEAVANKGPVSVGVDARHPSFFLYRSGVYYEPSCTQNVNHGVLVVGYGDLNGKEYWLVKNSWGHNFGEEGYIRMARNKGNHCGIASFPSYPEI
Procedure: as §1, §2

[5] = target: T5, cathepsin K (Homo sapiens, UniProt P43235); assay: Substrate selectivity screening, rate of hydrolysis, cathepsin K; details: Table S4; substrate 100µM, cathepsin 5nM; pH 5.5, 37 °C; average of at least three screenings
T5 construct: made in house
T5 sequence (P43235 115-329): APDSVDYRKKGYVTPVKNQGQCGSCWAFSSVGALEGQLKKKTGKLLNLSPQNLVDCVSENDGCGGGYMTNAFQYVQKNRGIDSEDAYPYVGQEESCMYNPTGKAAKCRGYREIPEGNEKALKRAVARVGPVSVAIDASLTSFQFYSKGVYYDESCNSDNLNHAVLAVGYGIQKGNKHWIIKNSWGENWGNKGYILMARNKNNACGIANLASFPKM
Procedure: as §1, §2

[6] = target: T3, cathepsin V; assay: Kinetic parameters of ACC substrates with cathepsin V; details: for kcat/KM Cath-V: Fig. 5B, pH 5.5, 37 °C, cathepsin V 10–20 nM, triplicate, SD below 15%
Procedure: as §1
(§3) Classic substrate velocity plots were analyzed according to Michaelis–Menten kinetics and a detailed protocol for the determination of kinetic parameters for ACC-tagged substrates is found elsewhere.[56] […] Experiments were repeated at least three times and results are presented as an average. The SDs were below 15%.

[7] = target: T4, cathepsin S; assay: Kinetic parameters of ACC substrates with cathepsin S; details: for kcat/KM Cath-S: Fig. 5B, pH 5.5, 37 °C, cathepsin S 5–20 nM, triplicate, SD below 15%
Procedure: as §1, §3

[8] = target: T1, cathepsin L; assay: Kinetic parameters of ACC substrates with cathepsin L; details: for kcat/KM Cath-L: Fig. 5B, pH 5.5, 37 °C, cathepsin L 0.1–0.5 nM, triplicate, SD below 15%
Procedure: as §1, §3

[9] = target: T2, cathepsin B; assay: Kinetic parameters of ACC substrates with cathepsin B; details: for kcat/KM Cath-B: Fig. 5B, pH 5.5, 37 °C, cathepsin B 4–15 nM, triplicate, SD below 15%
Procedure: as §1, §3

[10] = target: T5, cathepsin K; assay: Kinetic parameters of ACC substrates with cathepsin K; details: for kcat/KM Cath-K: Fig. 5B, pH 5.5, 37 °C, cathepsin K 5–20 nM, triplicate, SD below 15%
Procedure: as §1, §3

[11] = Table S7, four independent experiments, S.D. below 15%

| Substance | kcat/KM Cath-V [6] | kcat/KM Cath-S [7] | kcat/KM Cath-L [8] | kcat/KM Cath-B [9] | kcat/KM Cath-K [10] | further results |
| --- | --- | --- | --- | --- | --- | --- |
| Ac-A[Orn][Phe(3,4-Cl2)]R-{ACC} (SMILES CC(=O)N[C@@H](C)C(=O)N[C@@H](CCCN)C(=O)N[C@@H](Cc1ccc(Cl)c(Cl)c1)C(=O)N[C@@H](CCCNC(=N)N)C(=O)Nc1ccc2c(CC(N)=O)cc(=O)oc2c1) |  |  |  |  |  | Relative substrate activity (rate of hydrolysis), cathepsin L [1]: 844 RFU/s; Relative substrate activity (rate of hydrolysis), cathepsin B [2]: 189 RFU/s; Relative substrate activity (rate of hydrolysis), cathepsin V [3]: 346 RFU/s; Relative substrate activity (rate of hydrolysis), cathepsin S [4]: 3.4 RFU/s; Relative substrate activity (rate of hydrolysis), cathepsin K [5]: 4.6 RFU/s |
| Ac-A[dK]K(Ac)R-{ACC} (SMILES CC(=O)NCCCC[C@H](NC(=O)[C@@H](CCCCN)NC(=O)[C@H](C)NC(C)=O)C(=O)N[C@@H](CCCNC(=N)N)C(=O)Nc1ccc2c(CC(N)=O)cc(=O)oc2c1) |  |  |  |  |  | Relative substrate activity (rate of hydrolysis), cathepsin L [1]: 25.3 RFU/s; Relative substrate activity (rate of hydrolysis), cathepsin B [2]: 16.9 RFU/s; Relative substrate activity (rate of hydrolysis), cathepsin V [3]: 0.0 RFU/s; Relative substrate activity (rate of hydrolysis), cathepsin S [4]: 0.0 RFU/s; Relative substrate activity (rate of hydrolysis), cathepsin K [5]: 1.2 RFU/s |
| Ac-H[dL][Phe(3,4-Cl2)]R-{ACC} (SMILES CC(=O)N[C@@H](Cc1c[nH]cn1)C(=O)N[C@H](CC(C)C)C(=O)N[C@@H](Cc1ccc(Cl)c(Cl)c1)C(=O)N[C@@H](CCCNC(=N)N)C(=O)Nc1ccc2c(CC(N)=O)cc(=O)oc2c1) |  |  |  |  |  | Relative substrate activity (rate of hydrolysis), cathepsin L [1]: 901 RFU/s; Relative substrate activity (rate of hydrolysis), cathepsin B [2]: 65.1 RFU/s; Relative substrate activity (rate of hydrolysis), cathepsin V [3]: 306 RFU/s; Relative substrate activity (rate of hydrolysis), cathepsin S [4]: 4.4 RFU/s; Relative substrate activity (rate of hydrolysis), cathepsin K [5]: 1.5 RFU/s |
| Ac-H[dV][Phe(3-F)]R-{ACC} (SMILES CC(=O)N[C@@H](Cc1c[nH]cn1)C(=O)N[C@@H](C(=O)N[C@@H](Cc1cccc(F)c1)C(=O)N[C@@H](CCCNC(=N)N)C(=O)Nc1ccc2c(CC(N)=O)cc(=O)oc2c1)C(C)C) | 12,600 M^-1s^-1 | 814 M⁻¹ s⁻¹ | 8,432,000 M^-1s^-1 | 6,280 M^-1s^-1 | 5,700 M^-1s^-1 |  |
| Ac-H[dV][Phe(4-F)]R-{ACC} (SMILES CC(=O)N[C@@H](Cc1c[nH]cn1)C(=O)N[C@@H](C(=O)N[C@@H](Cc1ccc(F)cc1)C(=O)N[C@@H](CCCNC(=N)N)C(=O)Nc1ccc2c(CC(N)=O)cc(=O)oc2c1)C(C)C) | 14,550 M^-1s^-1 | 1,800 M^-1s^-1 | 6,991,000 M^-1s^-1 | 3,100 M^-1s^-1 | 2,580 M^-1s^-1 |  |
| Ac-H[dV][Phe(F5)]C(Bn)-{ACC} (SMILES CC(=O)N[C@@H](Cc1c[nH]cn1)C(=O)N[C@@H](C(=O)N[C@@H](Cc1c(F)c(F)c(F)c(F)c1F)C(=O)N[C@@H](CSCc1ccccc1)C(=O)Nc1ccc2c(CC(N)=O)cc(=O)oc2c1)C(C)C) | 1,250 M^-1s^-1 | < 10 M⁻¹ s⁻¹ | 732,900 M^-1s^-1 | 1,370 M^-1s^-1 | 190 M⁻¹ s⁻¹ | kcat Cat V [6, 11]: 0.00971 s⁻¹; kcat/KM Cat V [6, 11]: 1,250 M-1s-1; Km ([6]; Table S7, four independent experiments, S.D. below 15%, read-out: KM Cat V): 7.76 µM; kcat/KM Cat S [7, 11]: < 10 M⁻¹ s⁻¹; kcat Cat L [8, 11]: 4.21 s⁻¹; kcat/KM Cat L [8, 11]: 732,900 M-1s-1; Km ([8]; Table S7, four independent experiments, S.D. below 15%, read-out: KM Cat L): 5.67 µM; kcat Cat B [9, 11]: 0.0115 s⁻¹; kcat/KM Cat B [9, 11]: 1,370 M-1s-1; Km ([9]; Table S7, four independent experiments, S.D. below 15%, read-out: KM Cat B): 8.19 µM; kcat Cat K [10, 11]: 0.00221 s⁻¹; kcat/KM Cat K [10, 11]: 190 M⁻¹ s⁻¹; Km ([10]; Table S7, four independent experiments, S.D. below 15%, read-out: KM Cat K): 11.5 µM |
| Ac-H[dV][Phe(F5)]C(Meb)-{ACC} (SMILES CC(=O)N[C@@H](Cc1c[nH]cn1)C(=O)N[C@@H](C(=O)N[C@@H](Cc1c(F)c(F)c(F)c(F)c1F)C(=O)N[C@@H](CSCc1ccc(C)cc1)C(=O)Nc1ccc2c(CC(N)=O)cc(=O)oc2c1)C(C)C) | 1,740 M^-1s^-1 | < 10 M⁻¹ s⁻¹ | 1,476,000 M^-1s^-1 | 2,290 M^-1s^-1 | < 10 M⁻¹ s⁻¹ |  |
| Ac-H[dV][Phe(F5)]C(Mob)-{ACC} (SMILES COc1ccc(CSC[C@H](NC(=O)[C@H](Cc2c(F)c(F)c(F)c(F)c2F)NC(=O)[C@H](NC(=O)[C@H](Cc2c[nH]cn2)NC(C)=O)C(C)C)C(=O)Nc2ccc3c(CC(N)=O)cc(=O)oc3c2)cc1) | 2,070 M^-1s^-1 | < 10 M⁻¹ s⁻¹ | 2,135,000 M^-1s^-1 | 3,800 M^-1s^-1 | < 10 M⁻¹ s⁻¹ |  |
| Ac-H[dV][Phe(F5)]E(OBn)-{ACC} (SMILES CC(=O)N[C@@H](Cc1c[nH]cn1)C(=O)N[C@@H](C(=O)N[C@@H](Cc1c(F)c(F)c(F)c(F)c1F)C(=O)N[C@@H](CCC(=O)OCc1ccccc1)C(=O)Nc1ccc2c(CC(N)=O)cc(=O)oc2c1)C(C)C) | 710 M⁻¹ s⁻¹ | 1,110 M^-1s^-1 | 599,800 M^-1s^-1 | 941 M⁻¹ s⁻¹ | 626 M⁻¹ s⁻¹ |  |
| Ac-H[dV][Phe(F5)]K(ClZ)-{ACC} (SMILES CC(=O)N[C@@H](Cc1c[nH]cn1)C(=O)N[C@@H](C(=O)N[C@@H](Cc1c(F)c(F)c(F)c(F)c1F)C(=O)N[C@@H](CCCCNC(=O)OCc1ccccc1Cl)C(=O)Nc1ccc2c(CC(N)=O)cc(=O)oc2c1)C(C)C) | 329 M⁻¹ s⁻¹ | < 10 M⁻¹ s⁻¹ | 686,700 M^-1s^-1 | 1,320 M^-1s^-1 | 361 M⁻¹ s⁻¹ |  |
| Ac-H[dV][Phe(F5)]L-{ACC} (SMILES CC(=O)N[C@@H](Cc1c[nH]cn1)C(=O)N[C@@H](C(=O)N[C@@H](Cc1c(F)c(F)c(F)c(F)c1F)C(=O)N[C@@H](CC(C)C)C(=O)Nc1ccc2c(CC(N)=O)cc(=O)oc2c1)C(C)C) | 325 M⁻¹ s⁻¹ | 912 M⁻¹ s⁻¹ | 135,600 M^-1s^-1 | 684 M⁻¹ s⁻¹ | 646 M⁻¹ s⁻¹ |  |
| Ac-H[dV][Phe(F5)][hArg]-{ACC} (SMILES CC(=O)N[C@@H](Cc1c[nH]cn1)C(=O)N[C@@H](C(=O)N[C@@H](Cc1c(F)c(F)c(F)c(F)c1F)C(=O)N[C@@H](CCCCNC(=N)N)C(=O)Nc1ccc2c(CC(N)=O)cc(=O)oc2c1)C(C)C) | 175 M⁻¹ s⁻¹ | < 10 M⁻¹ s⁻¹ | 317,900 M^-1s^-1 | 187 M⁻¹ s⁻¹ | < 10 M⁻¹ s⁻¹ |  |
| Ac-His-DVal-Phe(F5)-Lys-ACC | < 10 M⁻¹ s⁻¹ | < 10 M⁻¹ s⁻¹ | 231,000 M^-1s^-1 | < 10 M⁻¹ s⁻¹ | < 10 M⁻¹ s⁻¹ |  |
| Ac-His-DVal-Phe(F5)-Nle(OBzl)-ACC | 3,820 M^-1s^-1 | 508 M⁻¹ s⁻¹ | 2,290,000 M^-1s^-1 | 2,500 M^-1s^-1 | 906 M⁻¹ s⁻¹ |  |
| Ac-R[dV][Phe(F5)]R-{ACC} (SMILES CC(=O)N[C@@H](CCCNC(=N)N)C(=O)N[C@@H](C(=O)N[C@@H](Cc1c(F)c(F)c(F)c(F)c1F)C(=O)N[C@@H](CCCNC(=N)N)C(=O)Nc1ccc2c(CC(N)=O)cc(=O)oc2c1)C(C)C) | 333 M⁻¹ s⁻¹ | < 10 M⁻¹ s⁻¹ | 387,300 M^-1s^-1 | 101 M⁻¹ s⁻¹ | < 10 M⁻¹ s⁻¹ |  |
| Ac-[hArg][dV][Phe(F5)]R-{ACC} (SMILES CC(=O)N[C@@H](CCCCNC(=N)N)C(=O)N[C@@H](C(=O)N[C@@H](Cc1c(F)c(F)c(F)c(F)c1F)C(=O)N[C@@H](CCCNC(=N)N)C(=O)Nc1ccc2c(CC(N)=O)cc(=O)oc2c1)C(C)C) | 647 M⁻¹ s⁻¹ | < 10 M⁻¹ s⁻¹ | 454,800 M^-1s^-1 | 242 M⁻¹ s⁻¹ | 96 M⁻¹ s⁻¹ |  |
